Data published in US20030095982A1, “Fraction of Cordyceps sinensis and method of isolation thereof” (priority 2001, published 2003).

What was measured:
[1] = tested on: ovalbumin (OA) induced bronchial hyperresponsiveness; assay: Bronchoalveolar lavage cell counts, OA model in BALBc mice; format: in vivo
Protocol: (§1) After completion of the pulmonary function tests, BAL was performed using 1 mL normal saline twice (total 2 mL). The BAL fluid was collected into plastic flasks containing 1,500 units of heparin and then strained through 1 layer of surgical gauze and centrifuged at 500 g for 5 min. The cell pellet was washed 3 times with sterile saline solution and resuspended in RPMI-1640. A small portion was taken for evaluation of cell number and viability, as assessed by trypan blue exclusion.
(§2) Differential counts were obtained using a cytocentrifuge preparation (Cytospin; Shandon Southern Instruments, Sewickley, Pa.) stained with Liu's stain (modified May-Giemsa stain).

[2] = tested on: IFNγ (Th-1 related), IL-4, IL-5, IL-10 (Th-2 related) and iNOS mRNA; assay: Cytokine and iNOS mRNA in lung tissue by RT-PCR; format: in vivo, brown Norway rats (BNR); details: prophylactic and therapeutic treatment, OA asthma model
Protocol: The in vivo role of F-4 and F8 of Th1/Th2 cytokines by […] mRNA in lung tissue and nuclear factor (NF)κ B activity using an electromobility shift assay (EMSA)
Total RNA was extracted from lung tissue samples by a method described previously and RT-PCR was performed using a RT-PCR kit (Clontech, USA). The following T-cell related cytokines were evaluated by measuring their mRNA expression: IFNγ (Th-1 related) and IL-4, IL-5 and IL-10 (all Th-2 related) and inducible nitric oxide synthase (iNOS).
Briefly, 2 μg of RNA in a 25 μl volume was first primed with 2 μl oligo-(dT)18 primer, 20 μM, at 70° C. for 2 min and then kept on ice for 5 min. after the reaction, a mixture containing the following: 8 μl of 5×reaction buffer; 2 μl, dNTP mix […] (each); 1 μl recombinant Rnase inhibitor, 40 units/μ1; and 2 μl MMLV reverse transcriptase, 200 units/μ1, was added to synthesize cDNA. cDNA was amplified by 40 PCR cycles; each consisting of a denaturation step (94° C. for 1 min), an annealing step (65˜55° C. for 1 min, 0.5° C./cycle touch down, 55° C. for 19 cycles), and an extension step (72° C. for 1 min). During the last cycle the 72° C. step was extended to 5 min. The PCR product was analyzed on 2% agarose gel electrophoresis. The identity of each cytokine cDNA was determined by the size of the PCR product obtained by electrophoresis, and confirmed by DNA sequencing of the PCR products. […]

[3] = tested on: ICR mice; assay: Acute toxicity test in ICR mice; format: in vivo; details: normal diet with 2% ratio, killed after 7 days
From the text: The methodology used to carry out acute toxicity testing for this invention was as follows: ICR mice that had been fed on a normal diet with the above active compound included to constitute a 2% ratio were killed after 7 days in order to ascertain whether there was any evidence of toxicity.
(§3) B: Compound F8: This refers to F8 (for spectroscopic and structural data, see FIG. 2a, 2b, and 3). The molecular formula of compound F8 is C28H46O3. To confirm the potential applicability of the above fractions and to check for obvious toxicity or mutagenicity, Ames test and acute toxicity test were conducted on white mice (ICR-mice) using the F4 fraction or compound F8.

[4] = tested on: ovalbumin (OA) induced bronchial hyperresponsiveness; assay: Bronchoalveolar lavage cell counts, OA model in BNR; format: in vivo, brown Norway rats (BNR)
Protocol: as §1, with “using 10” for “using 1”, “(total 20 mL) for BNR or guinea pig.” for “(total 2 mL).”, “flasks containig” for “flasks containing”
as §2

[5] = tested on: ovalbumin (OA) induced bronchial hyperresponsiveness; assay: Histological examination of lung tissue in asthma model; format: in vivo, brown Norway rats (BNR); details: prophylactic and therapeutic treatment
Protocol: After BAL, each animal's chest was opened and the lungs were removed. The trachea and right lower lobe was fixed in 10% formaldehyde, dehydrated by different concentrations of alcohol, then embedded in paraffin, and cut into 4 μm thicknesses, stained with haematoxylin and eosin, and examined by light microscope. Histologic specimens (n=6 per each time point) were prepared. The trachea and each lobe were fixed in 10% formaldehyde, dehydrated by different concentrations of alcohol, then embedded in paraffin, and cut into 4 μm thicknesses; stained with haematosylin and eosin, and examined by light microscope for evaluation of the severity of inflammation. Each trachea and lung section was blindly assigned an inflammation score by two pathologists as follows; 1=rare or occasional inflammation cells scattered through the lung or trachea; 3=abundant inflammatory cells scattered through the lung or trachea; 2=inflammatory cells between the levels of 1 and 3. The total inflammation score for each animal was calculated as mean of the scores for 5 lung sections and trachea.

[6] = Ames test; format: cell-based
Protocol: as §3

[7] = BAL fluid, BALBc mice, 4 mg/Kg intraperitoneally 30 minutes before OA inhalation provocation
[8] = BAL fluid, 4 mg/Kg intraperitoneally 30 minutes before OA inhalation provocation

**Q.** For `CC(C)[C@@H](C)C=C[C@@H](C)[C@H]1CC[C@H]2C3=C[C@@H](O)[C@@]4(O)C[C@@H](O)CC[C@]4(C)[C@H]3CC[C@]12C` [F8, (24R)-ergosta-7,22-diene-3β, 5α, 6β,-triol], which “Eosinophil Cell count” value [1, 7] is on record?
**A.** Its value is 0.12 ± 0.04 (×10^4)/mL.

**Q.** And the “Eosinophil Percentage of total cell count (%)” value [1, 7]?
**A.** Its value is 6.3 ± 1.6 %.

**Q.** What about the “Lymphocyte Cell count” value [1, 7] of the same compound?
**A.** The value was 0.10 ± 0.04 (×10^4)/mL.

**Q.** And the “Lymphocyte Percentage of total cell count (%)” value [1, 7]?
**A.** The value was 5.2 ± 1.6 %.

**Q.** What about the “Macrophage Cell count” value [1, 7] of the same compound?
**A.** Its value is 1.82 ± 0.21 (×10^4)/mL.

**Q.** And the “Macrophage Percentage of total cell count (%)” value [1, 7]?
**A.** Its value is 84.2 ± 3.4 %.

**Q.** What about the “Neutrophil Cell count” value [1, 7] of the same compound?
**A.** Its value is 0.13 ± 0.03 (×10^4)/mL.

**Q.** And the “Neutrophil Percentage of total cell count (%)” value [1, 7]?
**A.** Its value is 5.1 ± 1.0 %.

**Q.** What about the Total cell count [1, 7] of the same compound?
**A.** The Total cell count was 2.23 ± 0.64 (×10^4)/mL.

**Q.** What about the “BAL total cell counts, eosinophils and lymphocytes versus group II” value ([1]; mice, treatment study (administered after OA challenge)) of the same compound?
**A.** Its value is “Group II had higher total cell counts than other 2 groups”.

**Q.** What about the Th1 cytokines expression [2] of the same compound?
**A.** The Th1 cytokines expression was “enhance Th1 cytokines expression”.

**Q.** And the “Th2 cytokines and iNOS gene mRNA expression” value [2]?
**A.** Its value is “decrease Th2 cytokines and INOS gene mRNA expression”.

**Q.** What about the acute toxicity [3] of the same compound?
**A.** Its acute toxicity is “no obvious evidence of toxicity or mutagenic properties”.

**Q.** What about the “Eosinophil Cell count” value [4, 8] of the same compound?
**A.** The value was 4.26 ± 0.5 (×10^4)/mL.

**Q.** And the “Eosinophil Percentage of total cell count (%)” value [4, 8]?
**A.** The value was 28.8 ± 4.5 %.

**Q.** What about the “Lymphocyte Cell count” value [4, 8] of the same compound?
**A.** The value was 3.37 ± 0.51 (×10^4)/mL.

**Q.** What about the “Lymphocyte Percentage of total cell count (%)” value [4, 8] of the same compound?
**A.** The value was 22.8 ± 4.5 %.

**Q.** And the “Macrophage Cell count” value [4, 8]?
**A.** Its value is 6.85 ± 0.64 (×10^4)/mL.

**Q.** What about the “Macrophage Percentage of total cell count (%)” value [4, 8] of the same compound?
**A.** Its value is 46.3 ± 5.5 %.

**Q.** What about the “Neutrophil Cell count” value [4, 8] of the same compound?
**A.** The value was 0.31 ± 0.4 (×10^4)/mL.

**Q.** And the “Neutrophil Percentage of total cell count (%)” value [4, 8]?
**A.** The value was 2.1 ± 0.5%.

**Q.** What about the Total cell count [4, 8] of the same compound?
**A.** Its Total cell count is 14.8 ± 3.2 (×10^4)/mL.

**Q.** What about the “BAL total cell counts, eosinophils and lymphocytes versus group II” value ([4]; treatment study (administered after OA inhalation provocation)) of the same compound?
**A.** The value was “Group II had higher total cell counts than the other 2 groups”.

**Q.** And the pulmonary histological change [5]?
**A.** The pulmonary histological change was “improve pulmonary histological change”.

**Q.** And the “mutagenicity (Ames test)” value [6]?
**A.** Its value is “no obvious evidence of toxicity or mutagenic properties”.
